# Reference: publication PMC11864979, “First-in-class ultralong-target-residence-time p38α inhibitors as a mitosis-targeted therapy for colorectal cancer” (Nature Cancer, 2025)
# Where two headings read alike, the source gives them in different places.
# Tests used:
# Assay in all cases: selectivity profiling in a panel of 340 wild-type kinases (Reaction Biology Europe)
# Type in all cases: binding
# 340 wild-type kinases [1] = molecular target: T1, 340 wild-type kinases (Homo sapiens, UniProt O00238)
# T1 construct: purchased Reaction Biology Europe
# T1 sequence (O00238 14-502): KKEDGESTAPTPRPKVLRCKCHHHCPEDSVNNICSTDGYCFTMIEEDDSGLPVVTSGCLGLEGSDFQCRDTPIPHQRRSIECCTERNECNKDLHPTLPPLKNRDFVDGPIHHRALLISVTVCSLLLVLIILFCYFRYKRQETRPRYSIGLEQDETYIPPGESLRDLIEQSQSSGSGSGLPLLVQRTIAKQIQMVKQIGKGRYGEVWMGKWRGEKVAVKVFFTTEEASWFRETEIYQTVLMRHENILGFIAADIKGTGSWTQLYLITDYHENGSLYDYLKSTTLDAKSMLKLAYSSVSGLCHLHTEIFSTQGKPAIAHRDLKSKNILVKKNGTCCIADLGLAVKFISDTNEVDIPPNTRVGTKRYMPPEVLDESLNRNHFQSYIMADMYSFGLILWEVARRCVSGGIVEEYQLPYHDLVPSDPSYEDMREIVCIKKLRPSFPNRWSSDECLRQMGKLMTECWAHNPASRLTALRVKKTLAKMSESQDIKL
# 340 wild-type kinases [2] = molecular target: T2, 340 wild-type kinases (Homo sapiens, UniProt O60674)
# T2 construct: purchased Reaction Biology Europe
# T2 sequence (O60674 whole entry): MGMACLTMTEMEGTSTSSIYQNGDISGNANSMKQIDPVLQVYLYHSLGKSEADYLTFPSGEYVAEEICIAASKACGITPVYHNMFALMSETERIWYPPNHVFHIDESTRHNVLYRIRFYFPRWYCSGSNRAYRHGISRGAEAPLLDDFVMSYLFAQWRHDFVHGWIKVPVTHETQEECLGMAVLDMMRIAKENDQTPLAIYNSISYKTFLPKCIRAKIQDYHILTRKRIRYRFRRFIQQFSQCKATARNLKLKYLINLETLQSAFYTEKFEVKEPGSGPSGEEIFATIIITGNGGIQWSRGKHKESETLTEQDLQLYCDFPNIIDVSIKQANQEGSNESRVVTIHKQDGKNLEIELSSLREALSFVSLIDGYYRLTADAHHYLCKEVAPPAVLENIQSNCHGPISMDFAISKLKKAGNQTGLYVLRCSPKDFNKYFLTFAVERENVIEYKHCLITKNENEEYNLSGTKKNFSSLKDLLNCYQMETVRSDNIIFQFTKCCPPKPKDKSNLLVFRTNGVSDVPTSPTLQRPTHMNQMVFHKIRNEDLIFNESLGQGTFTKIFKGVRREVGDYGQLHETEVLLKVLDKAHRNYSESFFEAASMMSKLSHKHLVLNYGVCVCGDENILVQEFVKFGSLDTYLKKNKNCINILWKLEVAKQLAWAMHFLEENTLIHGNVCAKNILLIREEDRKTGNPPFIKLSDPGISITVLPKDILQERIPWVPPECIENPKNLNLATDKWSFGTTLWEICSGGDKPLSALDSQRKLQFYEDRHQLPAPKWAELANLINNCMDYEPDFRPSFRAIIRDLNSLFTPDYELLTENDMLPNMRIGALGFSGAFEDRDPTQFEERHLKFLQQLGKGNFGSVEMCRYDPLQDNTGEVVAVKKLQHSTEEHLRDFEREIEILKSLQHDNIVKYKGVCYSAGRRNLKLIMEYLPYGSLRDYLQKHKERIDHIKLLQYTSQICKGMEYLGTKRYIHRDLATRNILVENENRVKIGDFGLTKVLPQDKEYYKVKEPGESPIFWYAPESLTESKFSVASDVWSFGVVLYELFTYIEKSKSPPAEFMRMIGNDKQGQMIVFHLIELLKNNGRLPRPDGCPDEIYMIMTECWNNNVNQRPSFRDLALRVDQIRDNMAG
# 340 wild-type kinases [3] = molecular target: T3, 340 wild-type kinases (Homo sapiens, UniProt P23443)
# T3 construct: purchased Reaction Biology Europe
# T3 sequence (P23443 whole entry): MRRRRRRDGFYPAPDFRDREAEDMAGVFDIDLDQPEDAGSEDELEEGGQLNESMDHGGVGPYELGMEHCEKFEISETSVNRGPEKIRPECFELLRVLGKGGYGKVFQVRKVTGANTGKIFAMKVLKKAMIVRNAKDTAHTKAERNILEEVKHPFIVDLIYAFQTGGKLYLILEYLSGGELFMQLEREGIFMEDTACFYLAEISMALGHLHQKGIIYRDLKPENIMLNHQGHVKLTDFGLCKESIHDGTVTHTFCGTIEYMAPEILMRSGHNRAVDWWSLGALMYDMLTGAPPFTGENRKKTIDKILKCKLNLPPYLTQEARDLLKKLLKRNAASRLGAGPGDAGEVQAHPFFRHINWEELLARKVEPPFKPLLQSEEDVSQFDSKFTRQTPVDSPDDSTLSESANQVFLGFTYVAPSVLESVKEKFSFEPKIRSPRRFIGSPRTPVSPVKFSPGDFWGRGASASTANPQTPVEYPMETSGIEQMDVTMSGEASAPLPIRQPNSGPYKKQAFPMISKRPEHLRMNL
# 340 wild-type kinases [4] = molecular target: T4, 340 wild-type kinases (Homo sapiens, UniProt P54756)
# T4 construct: purchased Reaction Biology Europe
# T4 sequence (P54756 25-1037): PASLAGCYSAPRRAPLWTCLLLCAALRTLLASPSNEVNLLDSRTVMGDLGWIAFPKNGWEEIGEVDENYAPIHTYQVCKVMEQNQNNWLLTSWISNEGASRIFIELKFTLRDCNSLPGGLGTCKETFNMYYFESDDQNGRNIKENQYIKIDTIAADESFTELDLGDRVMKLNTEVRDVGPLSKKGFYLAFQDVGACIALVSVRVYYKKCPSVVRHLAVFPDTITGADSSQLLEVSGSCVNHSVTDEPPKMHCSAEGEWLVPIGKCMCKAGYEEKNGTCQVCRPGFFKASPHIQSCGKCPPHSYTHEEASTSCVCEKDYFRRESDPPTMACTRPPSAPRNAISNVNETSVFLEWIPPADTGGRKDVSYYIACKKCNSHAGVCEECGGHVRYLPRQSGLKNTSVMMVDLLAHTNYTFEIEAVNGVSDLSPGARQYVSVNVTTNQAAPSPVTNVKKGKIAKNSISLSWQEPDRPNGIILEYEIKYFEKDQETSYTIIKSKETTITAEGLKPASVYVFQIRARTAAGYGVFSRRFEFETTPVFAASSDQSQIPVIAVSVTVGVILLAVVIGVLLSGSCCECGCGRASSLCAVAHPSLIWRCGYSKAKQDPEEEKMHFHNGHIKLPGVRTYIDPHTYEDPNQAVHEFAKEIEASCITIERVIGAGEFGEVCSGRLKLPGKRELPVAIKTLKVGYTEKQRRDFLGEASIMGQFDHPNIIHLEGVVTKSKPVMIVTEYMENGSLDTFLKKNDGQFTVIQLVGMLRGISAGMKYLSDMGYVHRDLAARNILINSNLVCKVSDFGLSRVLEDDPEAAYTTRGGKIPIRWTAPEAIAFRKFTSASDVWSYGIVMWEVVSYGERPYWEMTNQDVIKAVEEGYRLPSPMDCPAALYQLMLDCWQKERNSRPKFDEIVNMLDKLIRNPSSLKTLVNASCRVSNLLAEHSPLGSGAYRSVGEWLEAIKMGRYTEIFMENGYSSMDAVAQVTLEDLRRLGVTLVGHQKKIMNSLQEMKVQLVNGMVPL
# 340 wild-type kinases [5] = molecular target: T5, 340 wild-type kinases (Homo sapiens, UniProt Q00534)
# T5 construct: purchased Reaction Biology Europe
# T5 sequence (Q00534 whole entry): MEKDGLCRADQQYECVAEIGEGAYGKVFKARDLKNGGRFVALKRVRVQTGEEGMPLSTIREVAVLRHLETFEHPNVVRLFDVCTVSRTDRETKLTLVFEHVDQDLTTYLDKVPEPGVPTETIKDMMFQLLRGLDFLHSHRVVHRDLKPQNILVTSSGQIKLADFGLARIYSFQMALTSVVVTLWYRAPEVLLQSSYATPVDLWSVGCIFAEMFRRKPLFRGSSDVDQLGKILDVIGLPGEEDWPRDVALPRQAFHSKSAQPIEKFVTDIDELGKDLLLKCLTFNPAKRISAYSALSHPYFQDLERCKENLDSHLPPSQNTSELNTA
# 340 wild-type kinases [6] = molecular target: T6, 340 wild-type kinases (Homo sapiens, UniProt Q04771)
# T6 construct: purchased Reaction Biology Europe
# T6 sequence (Q04771 21-509): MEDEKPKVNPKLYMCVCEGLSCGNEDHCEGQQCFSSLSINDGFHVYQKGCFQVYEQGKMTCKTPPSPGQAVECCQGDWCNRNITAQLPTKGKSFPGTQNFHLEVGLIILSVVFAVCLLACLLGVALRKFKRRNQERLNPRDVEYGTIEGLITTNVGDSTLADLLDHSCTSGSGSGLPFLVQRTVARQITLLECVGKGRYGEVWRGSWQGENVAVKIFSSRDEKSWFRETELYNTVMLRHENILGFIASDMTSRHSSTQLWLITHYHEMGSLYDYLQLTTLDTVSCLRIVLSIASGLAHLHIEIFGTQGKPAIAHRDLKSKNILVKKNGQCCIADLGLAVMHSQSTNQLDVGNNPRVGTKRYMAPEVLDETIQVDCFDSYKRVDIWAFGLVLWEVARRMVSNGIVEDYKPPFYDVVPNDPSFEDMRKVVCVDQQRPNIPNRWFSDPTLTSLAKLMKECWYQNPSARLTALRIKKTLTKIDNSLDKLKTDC
# 340 wild-type kinases [7] = molecular target: T7, 340 wild-type kinases (Homo sapiens, UniProt Q14164)
# T7 construct: purchased Reaction Biology Europe
# T7 sequence (Q14164 1-716): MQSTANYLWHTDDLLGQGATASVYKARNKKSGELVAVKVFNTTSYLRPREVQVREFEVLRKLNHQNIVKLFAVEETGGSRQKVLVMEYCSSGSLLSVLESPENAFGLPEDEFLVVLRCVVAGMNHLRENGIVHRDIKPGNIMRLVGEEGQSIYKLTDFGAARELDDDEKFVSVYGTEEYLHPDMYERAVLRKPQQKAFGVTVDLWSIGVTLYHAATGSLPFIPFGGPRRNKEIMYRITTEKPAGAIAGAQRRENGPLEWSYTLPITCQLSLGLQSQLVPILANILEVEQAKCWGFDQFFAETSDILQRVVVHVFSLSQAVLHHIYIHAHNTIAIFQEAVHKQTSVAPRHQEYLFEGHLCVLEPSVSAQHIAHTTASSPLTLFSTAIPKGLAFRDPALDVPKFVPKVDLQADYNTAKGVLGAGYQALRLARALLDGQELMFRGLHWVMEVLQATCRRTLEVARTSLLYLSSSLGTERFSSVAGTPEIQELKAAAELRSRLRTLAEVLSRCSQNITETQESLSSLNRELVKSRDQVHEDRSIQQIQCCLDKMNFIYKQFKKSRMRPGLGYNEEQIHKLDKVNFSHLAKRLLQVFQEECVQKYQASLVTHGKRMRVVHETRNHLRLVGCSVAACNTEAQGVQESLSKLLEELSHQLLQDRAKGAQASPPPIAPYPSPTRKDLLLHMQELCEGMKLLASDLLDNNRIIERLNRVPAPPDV
# 340 wild-type kinases [8] = molecular target: T8, 340 wild-type kinases (Homo sapiens, UniProt Q16620)
# T8 construct: purchased Reaction Biology Europe
# 340 wild-type kinases [9] = molecular target: T9, 340 wild-type kinases (Homo sapiens, UniProt Q5TCY1)
# T9 construct: purchased Reaction Biology Europe
# 340 wild-type kinases [10] = molecular target: T10, 340 wild-type kinases (Homo sapiens, UniProt Q96SB4)
# T10 construct: purchased Reaction Biology Europe
# T10 sequence (Q96SB4 whole entry): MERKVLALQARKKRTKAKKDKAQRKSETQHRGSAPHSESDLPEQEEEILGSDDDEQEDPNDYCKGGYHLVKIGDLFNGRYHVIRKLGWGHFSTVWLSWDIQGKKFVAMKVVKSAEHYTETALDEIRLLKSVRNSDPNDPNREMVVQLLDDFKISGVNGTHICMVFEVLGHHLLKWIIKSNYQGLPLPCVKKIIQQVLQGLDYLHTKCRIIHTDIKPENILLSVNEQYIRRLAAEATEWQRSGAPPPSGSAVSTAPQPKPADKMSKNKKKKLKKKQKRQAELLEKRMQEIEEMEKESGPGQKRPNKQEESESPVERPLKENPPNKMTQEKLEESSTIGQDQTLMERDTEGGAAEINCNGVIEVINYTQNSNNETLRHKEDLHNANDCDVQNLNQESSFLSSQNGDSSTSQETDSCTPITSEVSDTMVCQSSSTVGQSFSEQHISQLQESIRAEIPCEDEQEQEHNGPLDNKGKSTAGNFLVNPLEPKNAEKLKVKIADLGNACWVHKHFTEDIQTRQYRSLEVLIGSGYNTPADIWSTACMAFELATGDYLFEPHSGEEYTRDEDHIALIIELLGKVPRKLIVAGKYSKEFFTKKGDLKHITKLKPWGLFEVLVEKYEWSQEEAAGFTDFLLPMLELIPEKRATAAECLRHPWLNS
# 340 wild-type kinases [11] = molecular target: T11, 340 wild-type kinases (Homo sapiens, UniProt Q9NYL2)
# T11 construct: purchased Reaction Biology Europe
# T11 sequence (Q9NYL2 whole entry): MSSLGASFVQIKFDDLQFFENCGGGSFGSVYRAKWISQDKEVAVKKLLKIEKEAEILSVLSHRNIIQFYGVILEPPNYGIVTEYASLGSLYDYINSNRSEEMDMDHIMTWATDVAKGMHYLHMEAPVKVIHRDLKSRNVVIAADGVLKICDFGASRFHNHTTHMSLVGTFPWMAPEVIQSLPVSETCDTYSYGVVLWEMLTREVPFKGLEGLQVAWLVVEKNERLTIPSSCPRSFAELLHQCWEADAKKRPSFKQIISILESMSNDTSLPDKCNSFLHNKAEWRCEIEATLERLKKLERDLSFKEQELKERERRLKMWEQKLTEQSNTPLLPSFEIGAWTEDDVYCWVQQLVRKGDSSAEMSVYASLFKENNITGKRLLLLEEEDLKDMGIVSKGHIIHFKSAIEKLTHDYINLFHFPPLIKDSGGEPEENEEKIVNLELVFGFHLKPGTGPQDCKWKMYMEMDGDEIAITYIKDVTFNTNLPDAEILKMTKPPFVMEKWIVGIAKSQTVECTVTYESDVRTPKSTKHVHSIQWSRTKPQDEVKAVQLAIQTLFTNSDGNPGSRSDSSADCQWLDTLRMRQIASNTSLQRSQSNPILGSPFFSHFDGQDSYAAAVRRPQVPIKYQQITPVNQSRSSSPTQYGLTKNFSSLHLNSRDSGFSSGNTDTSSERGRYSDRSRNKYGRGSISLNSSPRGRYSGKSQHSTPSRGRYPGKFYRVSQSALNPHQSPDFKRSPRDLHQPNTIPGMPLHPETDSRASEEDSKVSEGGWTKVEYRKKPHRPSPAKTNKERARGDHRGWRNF
compound,measurement,setting,value
CNC(=O)c1ccc2c(c1)C(=O)c1ccc(Nc3ccc(F)c(NC(=O)C4CC4)c3)cc1CC2 [Compound 2015],remaining activity at 0.2 µM,"340 wild-type kinases [1]; 0.2 µM 2015, read-out: BMPR1B residual activity",105%
same,remaining activity at 1 µM,"340 wild-type kinases [1]; 1 µM 2015, read-out: BMPR1B residual activity",103%
same,remaining activity at 0.2 µM,"340 wild-type kinases [1]; BMPR1B, 0.2 µM, read-out: residual activity",105%
same,remaining activity at 1 µM,"340 wild-type kinases [1]; BMPR1B, 1 µM, read-out: residual activity",103%
same,remaining activity at 0.2 µM,"340 wild-type kinases [2]; 0.2 µM 2015, read-out: JAK2 residual activity",104%
same,remaining activity at 1 µM,"340 wild-type kinases [2]; 1 µM 2015, read-out: JAK2 residual activity",102%
same,remaining activity at 0.2 µM,"340 wild-type kinases [2]; JAK2, 0.2 µM, read-out: residual activity",104%
same,remaining activity at 1 µM,"340 wild-type kinases [2]; JAK2, 1 µM, read-out: residual activity",102%
same,remaining activity at 0.2 µM,"340 wild-type kinases [3]; 0.2 µM 2015, read-out: S6K residual activity",94.9%
same,remaining activity at 1 µM,"340 wild-type kinases [3]; 1 µM 2015, read-out: S6K residual activity",95.1%
same,remaining activity at 0.2 µM,"340 wild-type kinases [3]; S6K, 0.2 µM, read-out: residual activity",94.9%
same,remaining activity at 1 µM,"340 wild-type kinases [3]; S6K, 1 µM, read-out: residual activity",95.1%
same,remaining activity at 0.2 µM,"340 wild-type kinases [4]; 0.2 µM 2015, read-out: EPHA5 residual activity",110%
same,remaining activity at 1 µM,"340 wild-type kinases [4]; 1 µM 2015, read-out: EPHA5 residual activity",98.5%
same,remaining activity at 0.2 µM,"340 wild-type kinases [4]; EPHA5, 0.2 µM, read-out: residual activity",110%
same,remaining activity at 1 µM,"340 wild-type kinases [4]; EPHA5, 1 µM, read-out: residual activity",98.5%
same,remaining activity at 0.2 µM,"340 wild-type kinases [5]; 0.2 µM 2015, read-out: CDK6/CycD1 residual activity",97.6%
same,remaining activity at 0.2 µM,"340 wild-type kinases [5]; 0.2 µM 2015, read-out: CDK6/CycD2 residual activity",88.8%
same,remaining activity at 0.2 µM,"340 wild-type kinases [5]; 0.2 µM 2015, read-out: CDK6/CycD3 residual activity",93.3%
same,remaining activity at 1 µM,"340 wild-type kinases [5]; 1 µM 2015, read-out: CDK6/CycD1 residual activity",93.4%
same,remaining activity at 1 µM,"340 wild-type kinases [5]; 1 µM 2015, read-out: CDK6/CycD2 residual activity",91.1%
same,remaining activity at 1 µM,"340 wild-type kinases [5]; 1 µM 2015, read-out: CDK6/CycD3 residual activity",86.4%
same,remaining activity at 0.2 µM,"340 wild-type kinases [5]; CDK6/CycD1, 0.2 µM, read-out: residual activity",97.6%
same,remaining activity at 1 µM,"340 wild-type kinases [5]; CDK6/CycD1, 1 µM, read-out: residual activity",93.4%
same,remaining activity at 0.2 µM,"340 wild-type kinases [5]; CDK6/CycD2, 0.2 µM, read-out: residual activity",88.8%
same,remaining activity at 1 µM,"340 wild-type kinases [5]; CDK6/CycD2, 1 µM, read-out: residual activity",91.1%
same,remaining activity at 0.2 µM,"340 wild-type kinases [5]; CDK6/CycD3, 0.2 µM, read-out: residual activity",93.3%
same,remaining activity at 1 µM,"340 wild-type kinases [5]; CDK6/CycD3, 1 µM, read-out: residual activity",86.4%
same,remaining activity at 0.2 µM,"340 wild-type kinases [6]; 0.2 µM 2015, read-out: ACVR1 residual activity",88.7%
same,remaining activity at 1 µM,"340 wild-type kinases [6]; 1 µM 2015, read-out: ACVR1 residual activity",96.8%
same,remaining activity at 0.2 µM,"340 wild-type kinases [6]; ACVR1, 0.2 µM, read-out: residual activity",88.7%
same,remaining activity at 1 µM,"340 wild-type kinases [6]; ACVR1, 1 µM, read-out: residual activity",96.8%
same,remaining activity at 0.2 µM,"340 wild-type kinases [7]; 0.2 µM 2015, read-out: IKKepsilon residual activity",103%
same,remaining activity at 1 µM,"340 wild-type kinases [7]; 1 µM 2015, read-out: IKKepsilon residual activity",92.6%
same,remaining activity at 0.2 µM,"340 wild-type kinases [7]; IKKepsilon, 0.2 µM, read-out: residual activity",103%
same,remaining activity at 1 µM,"340 wild-type kinases [7]; IKKepsilon, 1 µM, read-out: residual activity",92.6%
same,remaining activity at 0.2 µM,"340 wild-type kinases [8]; 0.2 µM 2015, read-out: TRKB residual activity",99.7%
same,remaining activity at 1 µM,"340 wild-type kinases [8]; 1 µM 2015, read-out: TRKB residual activity",91.3%
same,remaining activity at 0.2 µM,"340 wild-type kinases [8]; TRKB, 0.2 µM, read-out: residual activity",99.7%
same,remaining activity at 1 µM,"340 wild-type kinases [8]; TRKB, 1 µM, read-out: residual activity",91.3%
same,remaining activity at 0.2 µM,"340 wild-type kinases [9]; 0.2 µM 2015, read-out: TTBK1 residual activity",88.5%
same,remaining activity at 1 µM,"340 wild-type kinases [9]; 1 µM 2015, read-out: TTBK1 residual activity",93.4%
same,remaining activity at 0.2 µM,"340 wild-type kinases [9]; TTBK1, 0.2 µM, read-out: residual activity",88.5%
same,remaining activity at 1 µM,"340 wild-type kinases [9]; TTBK1, 1 µM, read-out: residual activity",93.4%
same,remaining activity at 0.2 µM,"340 wild-type kinases [10]; 0.2 µM 2015, read-out: SRPK1 residual activity",108%
same,remaining activity at 1 µM,"340 wild-type kinases [10]; 1 µM 2015, read-out: SRPK1 residual activity",105%
same,remaining activity at 0.2 µM,"340 wild-type kinases [10]; SRPK1, 0.2 µM, read-out: residual activity",108%
same,remaining activity at 1 µM,"340 wild-type kinases [10]; SRPK1, 1 µM, read-out: residual activity",105%
same,remaining activity at 0.2 µM,"340 wild-type kinases [11]; 0.2 µM 2015, read-out: ZAK residual activity",110%
same,remaining activity at 1 µM,"340 wild-type kinases [11]; 1 µM 2015, read-out: ZAK residual activity",104%
same,remaining activity at 0.2 µM,"340 wild-type kinases [11]; ZAK, 0.2 µM, read-out: residual activity",110%
same,remaining activity at 1 µM,"340 wild-type kinases [11]; ZAK, 1 µM, read-out: residual activity",104%
